# According to patent US9376418B2, “Substituted pyridine spleen tyrosine kinase (SYK) inhibitors” (Merck Sharp & Dohme Corp., priority 2012, dated 2016):
# Target: T1, recombinant human GST-SYK (Homo sapiens, UniProt P43405)
# T1 construct: purchased Carna Biosciences 08-176
# Experiment: Homogeneous Time-Resolved Fluorescence (HTRF) assay for the recombinant human Syk enzyme
# Assay type: biochemical
# Details: HTRF assay, recombinant human GST-SYK; IC50 given as class symbols; read-out: rhSYK Activity
# In short: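 GST-hSYK ([…]) was preincubated with inhibitor (0.1% DMSO final) for 10 minutes at room temperature in 15 mM Tris-HCl pH 7.5, 0.01% tween 20, 2 mM DTT. Biotinylated peptide (250 nM), 5 mM magnesium and 25 μM ATP started a 45-minute room-temperature reaction, read by time-resolved fluorescence.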
row,IC50 [nM],SMILES
1,< 100,"CCOC(=O)c1cncc(-c2cc(C)cc(Nc3nccc(C(F)(F)F)n3)c2)c1 [Example 2.68, ethyl 5-(3-methyl-5-{[4-(trifluoromethyl)pyrimidin-2-yl]amino}phenyl)pyridine-3-carboxylate]"
2,< 100,"Cc1cc(Nc2nccc(C(F)(F)F)n2)cc(-c2cncc(C(=O)O)c2)c1 [Example 2.69, 5-(3-methyl-5-{[4-(trifluoromethyl)pyrimidin-2-yl]amino}phenyl)pyridine-3-carboxylic acid]"
3,< 100,"Cc1cc(Nc2nccc(C(F)(F)F)n2)cc(-c2ccc(N3CCCNC(=O)C3)nc2)c1 [Example 2.70, 4-[5-(3-methyl-5-{[4-(trifluoromethyl)pyrimidin-2-yl]amino}phenyl)pyridin-2-yl]-1,4-diazepan-2-one]"
4,100 to 1000,"Cc1cc(Nc2nccc(C(F)(F)F)n2)cc(-c2ccc(C(=O)NC3CC3)nc2)c1 [Example 2.71, N-cyclopropyl-5-(3-methyl-5-{[4-(trifluoromethyl)pyrimidin-2-yl]amino}phenyl)pyridine-2-carboxamide]"
5,< 100,"Cc1cc(Nc2nccc(C(F)(F)F)n2)cc(-c2cnc(N(C)C)c(C(=O)O)c2)c1 [Example 2.72, 2-(dimethylamino)-5-(3-methyl-5-{[4-(trifluoromethyl)pyrimidin-2-yl]amino}phenyl)pyridine-3-carboxylic acid]"
6,< 100,"O=C(O)c1cncc(-c2cccc(Nc3nccc(C(F)(F)F)n3)c2)c1 [Example 2.73, 5-(3-{[4-(trifluoromethyl)pyrimidin-2-yl]amino}phenyl)pyridine-3-carboxylic acid]"
7,< 100,"CNc1ncc(-c2cc(C)cc(Nc3nccc(C(F)(F)F)n3)c2)cc1C(=O)O [Example 2.74, 2-(methylamino)-5-(3-methyl-5-{[4-(trifluoromethyl)pyrimidin-2-yl]amino}phenyl)pyridine-3-carboxylic acid]"
8,< 100,"Cc1cc(Nc2nccc(C(F)(F)F)n2)cc(-c2cncc(C(C)(O)C(F)(F)F)c2)c1 (stereo not shown) [Example 2.75, 1,1,1-trifluoro-2-[5-(3-methyl-5-{[4-(trifluoromethyl)pyrimidin-2-yl]amino}phenyl)pyridin-3-yl]propan-2-ol]"
9,100 to 1000,"Cc1cc(Nc2nccc(C(F)(F)F)n2)cc(-c2ccc(C(C)(O)C(F)(F)F)nc2)c1 (stereo not shown) [Example 2.76, 1,1,1-trifluoro-2-[5-(3-methyl-5-{[4-(trifluoromethyl)pyrimidin-2-yl]amino}phenyl)pyridin-2-yl]propan-2-ol]"
10,100 to 1000,"CCOC(=O)CCc1ccc(-c2cccc(Nc3nccc(C(F)(F)F)n3)c2)cn1 [Example 2.77, ethyl 3-[5-(3-{[4-(trifluoromethyl)pyrimidin-2-yl]amino}phenyl)pyridin-2-yl]propanoate]"
11,< 100,"O=C(O)CCc1cncc(-c2cccc(Nc3nccc(C(F)(F)F)n3)c2)c1 [Example 2.79, 3-[5-(3-{[4-(trifluoromethyl)pyrimidin-2-yl]amino}phenyl)pyridin-3-yl]propanoic acid]"
12,< 100,"O=C(O)CCc1ccc(-c2cccc(Nc3nccc(C(F)(F)F)n3)c2)cn1 [Example 2.82, 3-[5-(3-{[4-(trifluoromethyl)pyrimidin-2-yl]amino}phenyl)pyridin-2-yl]propanoic acid]"
13,< 100,"COc1ccnc(Nc2cc(C)cc(-c3ccc(CCC(=O)O)nc3)c2)n1 [Example 2.83, 3-(5-{3-[(4-methoxypyrimidin-2-yl)amino]-5-methylphenyl}pyridin-2-yl)propanoic acid]"

# Continued, molecule first:
row,SMILES,IC50 [nM]
1,"CNCc1ccc(-c2cc(C)cc(Nc3nccc(C(F)(F)F)n3)c2)cn1 [Example 2.49, N-(3-methyl-5-{6-[(methylamino)methyl]pyridin-3-yl}phenyl)-4-(trifluoromethyl)pyrimidin-2-amine]",< 100
2,"Cc1cc(Nc2nccc(C(F)(F)F)n2)cc(-c2cnc(O)c(N)c2C)c1 [Example 2.51, 3-amino-4-methyl-5-(3-methyl-5-{[4-(trifluoromethyl)pyrimidin-2-yl]amino}phenyl)pyridin-2-ol]",100 to 1000
3,"Cc1cc(Nc2nccc(C(F)(F)F)n2)cc(-c2cnc3c(c2)OCCN3)c1 [Example 2.52, N-[3-(3,4-dihydro-2H-pyrido[3,2-b][1,4]oxazin-7-yl)-5-methylphenyl]-4-(trifluoromethyl)pyrimidin-2-amine]",< 100
4,"COC(=O)c1cncc(-c2cc(C)cc(Nc3nccc(C(F)(F)F)n3)c2)c1 [Example 2.53, methyl 5-(3-methyl-5-{[4-(trifluoromethyl)pyrimidin-2-yl]amino}phenyl)pyridine-3-carboxylate]",100 to 1000
5,"Cc1cc(Nc2nccc(C(F)(F)F)n2)cc(-c2cncc(C(F)(F)F)c2)c1 [Example 2.54, N-{3-methyl-5-[5-(trifluoromethyl)pyridin-3-yl]phenyl}-4-(trifluoromethyl)pyrimidin-2-amine]",100 to 1000
6,"Cc1cc(Nc2nccc(C(F)(F)F)n2)cc(-c2cnc3c(c2)OCCN3C)c1 [Example 2.55, N-[3-methyl-5-(4-methyl-3,4-dihydro-2H-pyrido[3,2-b][1,4]oxazin-7-yl)phenyl]-4-(trifluoromethyl)pyrimidin-2-amine]",< 100
7,"Cc1cc(Nc2nccc(C(F)(F)F)n2)cc(-c2cncc(C#N)c2)c1 [Example 2.56, 5-(3-methyl-5-{[4-(trifluoromethyl)pyrimidin-2-yl]amino}phenyl)pyridine-3-carbonitrile]",< 100
8,"Cc1cc(Nc2nccc(C(F)(F)F)n2)cc(-c2cccnc2)c1 [Example 2.57, N-(3-methyl-5-pyridin-3-ylphenyl)-4-(trifluoromethyl)pyrimidin-2-amine]",< 100
9,"COc1cncc(-c2cc(C)cc(Nc3nccc(C(F)(F)F)n3)c2)c1 [Example 2.58, N-[3-(5-methoxypyridin-3-yl)-5-methylphenyl]-4-(trifluoromethyl)pyrimidin-2-amine]",< 100
10,"Cc1cc(Nc2nccc(C(F)(F)F)n2)cc(-c2ccc(N3CCCNCC3)nc2)c1 [Example 2.59, N-{3-[6-(1,4-diazepan-1-yl)pyridin-3-yl]-5-methylphenyl}-4-(trifluoromethyl)pyrimidin-2-amine]",< 100
11,"Cc1cc(Nc2nccc(C(F)(F)F)n2)cc(-c2ccc(OC3CCOCC3)nc2)c1 [Example 2.61, N-{3-methyl-5-[6-(tetrahydro-2H-pyran-4-yloxy)pyridin-3-yl]phenyl}-4-(trifluoromethyl)pyrimidin-2-amine]",100 to 1000
12,"Cc1cc(Nc2nccc(C(F)(F)F)n2)cc(-c2ccc(NS(=O)(=O)N3CCCCC3)nc2)c1 [Example 2.62, N-[5-(3-methyl-5-{[4-(trifluoromethyl)pyrimidin-2-yl]amino}phenyl)pyridin-2-yl]piperidine-1-sulfonamide]",100 to 1000
13,"Cc1cc(Nc2nccc(C(F)(F)F)n2)cc(-c2ccc(CN)nc2)c1 [Example 2.63, N-{3-[6-(aminomethyl)pyridin-3-yl]-5-methylphenyl}-4-(trifluoromethyl)pyrimidin-2-amine]",< 100
14,"COC(=O)c1ccc(-c2cc(C)cc(Nc3nccc(C(F)(F)F)n3)c2)cn1 [Example 2.65, methyl 5-(3-methyl-5-{[4-(trifluoromethyl)pyrimidin-2-yl]amino}phenyl)pyridine-2-carboxylate]",100 to 1000
15,"Cc1cc(Nc2nccc(C(F)(F)F)n2)cc(-c2cncc(CO)c2)c1 [Example 2.66, [5-(3-methyl-5-{[4-(trifluoromethyl)pyrimidin-2-yl]amino}phenyl)pyridin-3-yl]methanol]",< 100
